Laboratory results as given in patent publication US9408387B2, “Safening 6-amino-2-(substituted phenyl)-5-substituted-4-pyrimidinecarboxylate herbicide injury on cereal crops” (Dow AgroSciences LLC, priority 2009, dated 2016).
Read-outs that look alike come from different tables or passages of the source.

Tests used:
Assay type in all cases: in vivo
[1] = test system: SASKR; test: Postemergence herbicidal activity, greenhouse, visual injury: SASKR; conditions: CQC-M 0
Experimental: (§1) Evaluation of Postemergence Herbicidal Safening in Cereal Crops
(§2) Seeds of the desired test plant species were planted in Sun Gro MetroMix® 306 planting mixture, which typically has a pH of 6.0 to 6.8 and an organic matter content of about 30 percent, in plastic pots with a surface area of 103.2 square centimeters (cm^2). When required to ensure good germination and healthy plants, a fungicide treatment and/or other chemical or physical treatment was applied. The plants were grown for 7-36 days (d) in a greenhouse with an approximate 14-hour (h) photoperiod which was maintained at about 18° C. during the day and 17° C. during the night. Nutrients and water were added on a regular basis and supplemental lighting was provided with overhead metal halide 1000-Watt lamps as necessary. The plants were employed for testing when they reached the second or third true leaf stage.
(§3) Treatments consisted of the acids or esters of compounds 1-10 and cloquintocet-mexyl (CQC-M), fenchlorazole-ethyl, mefenpyr-diethyl alone and in combination. Weighed amounts of acid or methyl esters of the compounds of formula (I) were dissolved in a volume of 97:3 v/v acetone/dimethylsulfoxide (DMSO) to obtain concentrated solutions. […] The concentrated solutions of the test compound were diluted with the addition of an aqueous mixture containing acetone, water, isopropyl alcohol, DMSO, Agri-Dex crop oil concentrate, and Triton® X-77 surfactant in a 64.7:26.0:6.7:2.0:0.7:0.01 v/v ratio. Test compounds were diluted to the appropriate application rate with a dilution solution which was prepared by mixing the appropriate volume of 97:3 v/v acetone/DMSO and the appropriate volume of an aqueous mixture containing acetone, water, isopropyl alcohol, DMSO, Agri-Dex crop oil concentrate, and Triton® X-77 surfactant in a 64.7:26.0:6.7:2.0:0.7:0.01 v/v ratio. Compound requirements are based upon a 12 mL application volume at a rate of 187 liters per hectare (L/ha). The concentrated solutions of the safener were prepared following the same procedure. Weighed amounts of safener were dissolved in a volume of 97:3 v/v acetone/DMSO to obtain concentrated safener solutions.
(§4) Spray solutions of the herbicide safener and test compound mixtures were prepared by adding the concentrated solutions to the appropriate amount of dilution solution to form 12 mL spray solution with active ingredients in combinations.
(§5) Formulated compounds were applied to the plant material with an overhead Mandel track sprayer equipped with 8002E nozzles calibrated to deliver 187 L/ha over an application area of 0.503 square meters (m^2) at a spray height of 18 inches (43 centimeters (cm)) above average plant canopy. Control plants were sprayed in the same manner with the solvent blank.
(§6) The treated plants and control plants were placed in a greenhouse as described above and watered by sub-irrigation to prevent wash-off of the test compounds. After 20-22 d, the condition of the test plants as compared with that of the control plants was determined visually and scored on a scale of 0 to 100 percent where 0 corresponds to no injury and 100 corresponds to complete kill.
(§7) Colby's equation was used to determine the herbicidal effects expected from the mixtures (Colby, S. R. Calculation of the synergistic and antagonistic response of herbicide combinations. Weeds 1967, 15, 20-22.).
(§8) The following equation was used to calculate the expected activity of mixtures containing two active ingredients, A and B: Expected=A+B−(A×B/100)
(§9) A=observed efficacy of active ingredient A at the same concentration as used in the mixture.
(§10) B=observed efficacy of active ingredient B at the same concentration as used in the mixture.

[2] = test system: purple deadnettle (Lamium purpureum L; LAMPU); test: Postemergence herbicidal activity, greenhouse, visual injury: purple deadnettle; conditions: for LAMPU Ob (Observed values, % control): CQC-M 0; for pest or weed control at 140 g/ha: Lamium purpureum, post-emergence, 480 h, read-out: LAMPU Ob (visual injury)
Experimental: as §1, §2, §3, §4, §5, §6, §7, §8, §9, §10

[3] = test system: CIRAR; test: Postemergence herbicidal activity, greenhouse, visual injury: CIRAR; conditions: CQC-M 0
Experimental: as §1, §2, §3, §4, §5, §6, §7, §8, §9, §10

[4] = test system: corn poppy (Papaver rhoeas L; PAPRH); test: Postemergence herbicidal activity, greenhouse, visual injury: corn poppy; conditions: CQC-M 0
Experimental: as §1, §2, §3, §4, §5, §6, §7, §8, §9, §10

[5] = test system: bird's-eye speedwell (Veronica persica L; VERPE); test: Postemergence herbicidal activity, greenhouse, visual injury: bird's-eye speedwell; conditions: CQC-M 0
Experimental: as §1, §2, §3, §4, §5, §6, §7, §8, §9, §10

[6] = test system: kochia (Kochia scoparia L; KCHSC); test: Postemergence herbicidal activity, greenhouse, visual injury: kochia; conditions: CQC-M 0
Experimental: as §1, §2, §3, §4, §5, §6, §7, §8, §9, §10

[7] = test system: spring wheat (Triticum aestivum L; TRZAS); test: Postemergence herbicidal safening in cereal crops, greenhouse, visual injury: spring wheat; conditions: for TRZAS Ob (Observed values, % control): CQC-M 0; for pest or weed control at 140 g/ha: Triticum aestivum, post-emergence, 480 h, read-out: TRZAS Ob (visual injury)
Experimental: as §1, §2, §3, §4, §5, §6, §7, §8, §9, §10

[8] = test system: MATCH; test: Postemergence herbicidal activity, greenhouse, visual injury: MATCH; conditions: CQC-M 0
Experimental: as §1, §2, §3, §4, §5, §6, §7, §8, §9, §10

[9] = test system: spring barley (Hordeum vulgare L; HORVS); test: Postemergence herbicidal safening in cereal crops, greenhouse, visual injury: spring barley; conditions: for HORVS Ob (Observed values, % control): CQC-M 0; for pest or weed control at 140 g/ha: Hordeum vulgare, post-emergence, 480 h, read-out: HORVS Ob (visual injury)
Experimental: as §1, §2, §3, §4, §5, §6, §7, §8, §9, §10

[10] = test system: wild mustard (Sinapis arvensis L.; SINAR); test: Postemergence herbicidal activity, greenhouse, visual injury: SINAR; conditions: CQC-M 0
[11] = test system: wild pansy (Viola tricolor; VIOTR); test: Postemergence herbicidal activity, greenhouse, visual injury: VIOTR; conditions: CQC-M 0
[12] = test system: lamb's-quarters (Chenopodium album L; CHEAL); test: Postemergence herbicidal activity, greenhouse, visual injury: lamb's-quarters; conditions: safener alone 140 g ae/ha; 20-22 d
Experimental: as §1, §2, §3
Spray solutions of the herbicide safener and test compound mixtures were prepared by adding the concentrated solutions to the appropriate amount of dilution solution to form 12 mL spray solution with active ingredients in combinations. […]
as §6, with “kill. […]” for “kill.”

[13] = safener alone 140 g ae/ha, 20-22 d

COc1c(N)nc(-c2ccc(Cl)c(F)c2F)nc1C(=O)O [Compound 10, 6-amino-2-(4-chloro-2,3-difluorophenyl)-5-methoxypyrimidine-4-carboxylic acid]
SASKR Ob (Observed values, % control) ([1]; Compound 10 8.75 g ae/ha): 85%
SASKR Ob (Observed values, % control) ([1]; Compound 10 17.5 g ae/ha): 87%
SASKR Ob (Observed values, % control) ([1]; Compound 10 35 g ae/ha): 90%
SASKR Ob (Observed values, % control) ([1]; Compound 10 70 g ae/ha): 93%
SASKR Ob (Observed values, % control) ([1]; Compound 10 140 g ae/ha): 95%
LAMPU Ob (Observed values, % control) ([2]; Compound 10 8.75 g ae/ha): 95%
LAMPU Ob (Observed values, % control) ([2]; Compound 10 17.5 g ae/ha): 95%
LAMPU Ob (Observed values, % control) ([2]; Compound 10 35 g ae/ha): 100%
LAMPU Ob (Observed values, % control) ([2]; Compound 10 70 g ae/ha): 100%
LAMPU Ob (Observed values, % control) ([2]; Compound 10 140 g ae/ha): 100%
CIRAR Ob (Observed values, % control) ([3]; Compound 10 8.75 g ae/ha): 80%
CIRAR Ob (Observed values, % control) ([3]; Compound 10 17.5 g ae/ha): 85%
CIRAR Ob (Observed values, % control) ([3]; Compound 10 35 g ae/ha): 90%
CIRAR Ob (Observed values, % control) ([3]; Compound 10 70 g ae/ha): 90%
CIRAR Ob (Observed values, % control) ([3]; Compound 10 140 g ae/ha): 100%
PAPRH Ob (Observed values, % control) ([4]; Compound 10 8.75 g ae/ha): 100%
PAPRH Ob (Observed values, % control) ([4]; Compound 10 17.5 g ae/ha): 100%
PAPRH Ob (Observed values, % control) ([4]; Compound 10 35 g ae/ha): 100%
PAPRH Ob (Observed values, % control) ([4]; Compound 10 70 g ae/ha): 100%
PAPRH Ob (Observed values, % control) ([4]; Compound 10 140 g ae/ha): 100%
VERPE Ob (Observed values, % control) ([5]; Compound 10 8.75 g ae/ha): 93%
VERPE Ob (Observed values, % control) ([5]; Compound 10 17.5 g ae/ha): 97%
VERPE Ob (Observed values, % control) ([5]; Compound 10 35 g ae/ha): 100%
VERPE Ob (Observed values, % control) ([5]; Compound 10 70 g ae/ha): 100%
VERPE Ob (Observed values, % control) ([5]; Compound 10 140 g ae/ha): 100%
KCHSC Ob (Observed values, % control) ([6]; Compound 10 8.75 g ae/ha): 98%
KCHSC Ob (Observed values, % control) ([6]; Compound 10 17.5 g ae/ha): 98%
KCHSC Ob (Observed values, % control) ([6]; Compound 10 35 g ae/ha): 100%
KCHSC Ob (Observed values, % control) ([6]; Compound 10 70 g ae/ha): 100%
KCHSC Ob (Observed values, % control) ([6]; Compound 10 140 g ae/ha): 100%
TRZAS Ob (Observed values, % control) ([7]; Compound 10 8.75 g ae/ha): 45%
TRZAS Ob (Observed values, % control) ([7]; Compound 10 17.5 g ae/ha): 55%
TRZAS Ob (Observed values, % control) ([7]; Compound 10 35 g ae/ha): 65%
TRZAS Ob (Observed values, % control) ([7]; Compound 10 70 g ae/ha): 70%
TRZAS Ob (Observed values, % control) ([7]; Compound 10 140 g ae/ha): 75%
MATCH Ob (Observed values, % control) ([8]; Compound 10 8.75 g ae/ha): 70%
MATCH Ob (Observed values, % control) ([8]; Compound 10 17.5 g ae/ha): 90%
MATCH Ob (Observed values, % control) ([8]; Compound 10 35 g ae/ha): 93%
MATCH Ob (Observed values, % control) ([8]; Compound 10 70 g ae/ha): 95%
MATCH Ob (Observed values, % control) ([8]; Compound 10 140 g ae/ha): 100%
HORVS Ob (Observed values, % control) ([9]; Compound 10 8.75 g ae/ha): 25%
HORVS Ob (Observed values, % control) ([9]; Compound 10 17.5 g ae/ha): 30%
HORVS Ob (Observed values, % control) ([9]; Compound 10 35 g ae/ha): 60%
HORVS Ob (Observed values, % control) ([9]; Compound 10 70 g ae/ha): 75%
HORVS Ob (Observed values, % control) ([9]; Compound 10 140 g ae/ha): 85%
SINAR Ob (Observed values, % control) ([10]; Compound 10 8.75 g ae/ha): 100%
SINAR Ob (Observed values, % control) ([10]; Compound 10 17.5 g ae/ha): 100%
SINAR Ob (Observed values, % control) ([10]; Compound 10 35 g ae/ha): 100%
SINAR Ob (Observed values, % control) ([10]; Compound 10 70 g ae/ha): 100%
SINAR Ob (Observed values, % control) ([10]; Compound 10 140 g ae/ha): 100%
VIOTR Ob (Observed values, % control) ([11]; Compound 10 8.75 g ae/ha): 70%
VIOTR Ob (Observed values, % control) ([11]; Compound 10 17.5 g ae/ha): 75%
VIOTR Ob (Observed values, % control) ([11]; Compound 10 35 g ae/ha): 85%
VIOTR Ob (Observed values, % control) ([11]; Compound 10 70 g ae/ha): 93%
VIOTR Ob (Observed values, % control) ([11]; Compound 10 140 g ae/ha): 97%

CCOC(=O)c1nc(C(Cl)(Cl)Cl)n(-c2ccc(Cl)cc2Cl)n1 [Fenchlorazole-ethyl, fenchlorazole-ethyl, reference compound]
pest or weed control at 140 g/ha [2, 13]: 0%
pest or weed control at 140 g/ha [7, 13]: 0%
CHEAL Ob (visual injury) [12]: 0%
pest or weed control at 140 g/ha [9, 13]: 0%

CCOC(=O)C1=NN(c2ccc(Cl)cc2Cl)C(C)(C(=O)OCC)C1 (stereo not drawn) [Mefenpyr-diethyl, mefenpyr-diethyl, reference compound]
pest or weed control at 140 g/ha [2]: 0%
pest or weed control at 140 g/ha [7]: 0%
CHEAL Ob (visual injury) [12]: 0%
pest or weed control at 140 g/ha [9]: 0%
